Measurements taken from ChEMBL document CHEMBL1201862, “PubChem BioAssay data set” (2004).
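Where inhibition never reached the appropriate level, the endpoint shown equals the highest concentration tested. Otherwise, values were interpolated linearly from a five-concentration, 48-hour dose response in 96-well plates. GI50 marks 50% less growth.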 Calls of active or inactive are those of the source. Rule as the data show it: active = GI50 up to about 1.1 µM and inactive = higher.

Columns and labels:
Assay in all cases: NCI-60 cell line screen, 48 h
DLD-1 = test system: DLD-1
TK-10 = test system: TK-10
DMS-273 = test system: DMS-273
HCT-116 = test system: HCT-116
DMS-114 = test system: DMS-114
OVCAR-4 = test system: OVCAR-4
IGROV-1 = test system: IGROV-1
CAKI-1 = test system: CAKI-1
HOP-18 = test system: HOP-18
SK-MEL-2 = test system: SK-MEL-2
EKVX = test system: EKVX
M19-MEL = test system: M19-MEL
XF498 = test system: XF498
U-251 = test system: U-251
MDA-MB-435 = test system: MDA-MB-435
BT-549 = test system: BT-549
DU-145 = test system: DU-145
PC-3 = test system: PC-3
MDA-N = test system: MDA-N
Hs-578T = test system: Hs-578T

Row | Compound | GI50 (DLD-1) | GI50 (TK-10) | GI50 (DMS-273) | GI50 (HCT-116) | GI50 (DMS-114) | GI50 (OVCAR-4) | GI50 (IGROV-1) | GI50 (CAKI-1) | GI50 (HOP-18) | GI50 (SK-MEL-2) | GI50 (EKVX) | GI50 (M19-MEL) | GI50 (XF498) | GI50 (U-251) | GI50 (MDA-MB-435) | GI50 (BT-549) | GI50 (DU-145) | GI50 (PC-3) | GI50 (MDA-N) | GI50 (Hs-578T)
1 | COc1ccc(C2C(C(=O)O)=C(CO)Oc3cc4c(cc32)OCO4)cc1 (centres undefined) | > 100 µM (inactive) | > 100 µM (inactive) | > 100 µM (inactive) | > 100 µM (inactive) | > 100 µM (inactive) | > 100 µM (inactive) | > 100 µM (inactive) | > 100 µM (inactive) | > 100 µM (inactive) | > 100 µM (inactive) | > 100 µM (inactive) | > 100 µM (inactive) | > 100 µM (inactive) | > 100 µM (inactive) |  |  |  |  |  | 
2 | O=c1[nH]nc(NCc2ccccc2)c2nnn(Cc3ccccc3)c12 |  | > 100 µM (inactive) |  | > 100 µM (inactive) |  | > 100 µM (inactive) |  | > 100 µM (inactive) |  | > 100 µM (inactive) | > 100 µM (inactive) |  |  | > 100 µM (inactive) | > 100 µM (inactive) | > 100 µM (inactive) | > 100 µM (inactive) | > 100 µM (inactive) | > 100 µM (inactive) | 
3 | N=S(=O)(c1ccccc1)c1ccccc1 | > 100 µM (inactive) |  |  | > 100 µM (inactive) | > 100 µM (inactive) | > 100 µM (inactive) | > 100 µM (inactive) | > 100 µM (inactive) | > 100 µM (inactive) | > 100 µM (inactive) | > 100 µM (inactive) | > 100 µM (inactive) |  | > 100 µM (inactive) |  |  |  |  |  | 
4 | NC(CCOCCP(=O)(O)O)C(=O)O (centres undefined) |  | > 100 µM (inactive) |  | > 100 µM (inactive) |  | > 100 µM (inactive) | > 100 µM (inactive) | > 100 µM (inactive) |  | > 100 µM (inactive) | > 100 µM (inactive) |  |  | > 100 µM (inactive) | > 100 µM (inactive) | > 100 µM (inactive) | > 100 µM (inactive) | > 100 µM (inactive) | > 100 µM (inactive) | > 100 µM (inactive)
5 | Nc1nc(=O)[nH][nH]1 | > 100 µM (inactive) |  | > 100 µM (inactive) | > 100 µM (inactive) | > 100 µM (inactive) | > 100 µM (inactive) | > 100 µM (inactive) | > 100 µM (inactive) |  | > 100 µM (inactive) | > 100 µM (inactive) | > 100 µM (inactive) | > 100 µM (inactive) | > 100 µM (inactive) |  |  |  |  |  | 
6 | Cc1n[nH]c(N)c1C(N)=O | > 100 µM (inactive) | > 100 µM (inactive) | > 100 µM (inactive) |  | > 100 µM (inactive) | > 100 µM (inactive) | > 100 µM (inactive) | > 100 µM (inactive) | < 0.01 µM (active) | > 100 µM (inactive) | > 100 µM (inactive) |  | > 100 µM (inactive) | > 10 µM (inactive) |  |  |  |  |  | 
7 | O=C1NC(=O)C2(CCc3ccc(N(CCCl)CCCl)cc32)N1 (centres undefined) | 19 µM (inactive) |  | 2.94 µM (inactive) | 14.1 µM (inactive) | 10.9 µM (inactive) | 19.8 µM (inactive) | 15.9 µM (inactive) | 3.56 µM (inactive) | 20.2 µM (inactive) | 21.7 µM (inactive) | 3.15 µM (inactive) | 14.1 µM (inactive) |  | 6.78 µM (inactive) |  |  |  |  |  | 
8 | C[Si](C)(OCCS(=O)(=O)O)C1(Cc2cccc3ccccc23)S(=O)(=O)OCCOS1(=O)=O |  | 20.9 µM (inactive) |  | 18.5 µM (inactive) |  | 20.7 µM (inactive) | 16.9 µM (inactive) | 17.5 µM (inactive) |  | 18.9 µM (inactive) | 17.7 µM (inactive) |  |  | 20.3 µM (inactive) | 18.6 µM (inactive) | 18.5 µM (inactive) | 19.6 µM (inactive) | 19 µM (inactive) | 17.8 µM (inactive) | 33.2 µM (inactive)
9 | OC[C@H]1NC[C@@H](O)[C@@H](O)[C@H]1O |  | > 100 µM (inactive) |  | > 100 µM (inactive) |  | > 100 µM (inactive) | > 100 µM (inactive) | > 100 µM (inactive) |  | > 100 µM (inactive) |  |  |  | > 100 µM (inactive) | > 100 µM (inactive) | > 100 µM (inactive) | > 10 µM (inactive) | > 100 µM (inactive) | > 100 µM (inactive) | > 100 µM (inactive)
